{"source": "patent US5190934A", "about": "“P-subsituted propane-phosphinic acid compounds” (Ciba-Geigy Corporation, priority 1989, dated 1993)", "tested_on": "\"epileptic\"-like discharges of pyramidal cells", "assay": "Penicilline-induced \"epileptic\" hippocampal slice preparation", "format": "cell-based", "settings": "baclofen at 6 μM", "description": "The GABAB antagonists of the present invention interact at the GABAB receptor with IC50 values starting from about 10^-7 M (moles/liter) in rat brain cortex membranes. […] The antagonism against baclofen has also been shown in in vitro electrophysiological models, such as the penicilline-induced \"epileptic\" hippocampal slice preparation, where baclofen, at a concentration of 6 μM inhibits \"epileptic\"-like discharges of pyramidal cells. The compounds of the invention antagonise the effects of baclofen at concentrations from approximately 10 to approximately 100 μM. In vivo, antagonism has been shown by ionophoresis of baclofen on rat cerebral cortex, and systemic application of antagonists in doses of 10-100 mg/kg. The muscle relaxant effects of baclofen measured in the rotarod model are also antagonized at doses of about 30 mg/kg i.p."}
{"smiles": "NCC(CC(=O)O)c1ccc(Cl)cc1", "note": "(stereo not shown) [baclofen]", "values": [{"measurement": "effect on \"epileptic\"-like discharges of pyramidal cells", "result": "inhibits"}]}
